Data published in patent US20090281142A1, “THIAZOLE DERIVATIVE” (ASTELLAS PHARMA INC., priority 2005, published 2009).

Legend:
[1] = target: T1, recombinant human liver GK (GST-hGK2) (Homo sapiens, UniProt P35557); assay: Measurement of GK activation; type: biochemical; conditions: 10 min; 10 μM test agent, 5 mM glucose, increase of absorbance (340 nm) in first 10 minutes relative to DMSO control
T1 construct: cloning of ORF (open reading frame) was carried out by the following procedure based on AK122876.1; made in house; host or cells: E. coli
T1 sequence (P35557 1-466 isoform P35557-2): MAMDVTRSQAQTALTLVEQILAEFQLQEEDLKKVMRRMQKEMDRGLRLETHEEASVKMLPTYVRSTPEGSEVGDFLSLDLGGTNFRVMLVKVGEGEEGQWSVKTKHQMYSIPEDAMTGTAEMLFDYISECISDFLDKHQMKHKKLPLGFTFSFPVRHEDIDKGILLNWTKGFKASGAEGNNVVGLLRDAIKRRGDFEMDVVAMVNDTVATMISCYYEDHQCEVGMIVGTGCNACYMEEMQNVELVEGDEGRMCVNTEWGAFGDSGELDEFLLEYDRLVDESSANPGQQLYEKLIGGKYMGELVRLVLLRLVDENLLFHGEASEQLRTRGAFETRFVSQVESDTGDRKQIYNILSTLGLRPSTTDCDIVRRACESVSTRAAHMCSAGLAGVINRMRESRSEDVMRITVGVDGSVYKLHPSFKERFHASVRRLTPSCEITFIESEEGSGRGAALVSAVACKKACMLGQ
Protocol: Measurement of the GK activation by test agents was carried out in accordance with the method described in Science 301: 370-373, 2003, and by partially modifying this. The GK activity was measured as a change in absorbance based on the amount of NADPH which is converted from NADP (nicotinamide adenine dinucleotide phosphate) when glucose 6-phosphate produced by GK using glucose as the substrate is […] glucose-6-phosphate dehydrogenase.
Regarding the recombinant human liver GK (GST-hGK2) to be used in this assay, it was used by expressing as GST (glutathione S transferase)-fusion protein in E. coli and purifying by a Glutathione Sepharose column.
Regarding the sequence of glucokinase isoform 2, cloning of ORF (open reading frame) was carried out by the following procedure based on AK122876.1 (accession number). Using pME18S-FL3-Glucokinase isoform 2 as the template, PCR (polymerase chain reaction) was carried out using 5′-[…]-3′(SEQ ID NO:1) as the 5′ primer and 5′-[…]-3′ (SEQ ID NO:2) as the 3′ primer, and the PCR product was TA-cloned into pGEM-T easy vector. The sequence of this clone was confirmed by carrying out its sequencing. Thereafter, a fragment digested with EcoRI and XhoI was ligated to a vector pGEX-5X-1 digested in the same manner to prepare pGEX-human Glucokinase 2.
Regarding the enzyme reaction, the measurement was carried out at 27° C. using a 96 well flat bottom plate. As the enzyme mixed liquid, 25 mM HEPES pH 7.4; 25 mM KCl; 2 mM MgCl2; 1 mM ATP; 0.1% BSA; 1 mM DTT; 0.8 mM NADP; 2.5 U/ml glucose-6-phosphate dehydrogenase; GST-hGK2 (all in final concentration, however, the amount of GST-hGK2 was adjusted in such a manner that increase of absorbance of the DMSO control in 10 minutes (ΔOD) becomes about 0.12) was prepared. The enzyme mixed liquid was dispensed in 89 μl portions into the aforementioned plate, and a test agent dissolved in DMSO or the DMSO control was added thereto in 1 μl portions. Subsequently, glucose (5 mM in final concentration) was added as the substrate solution in 10 μl portions and the reaction was started at 27° C.
After commencement of the reaction, the absorbance was measured at a wavelength of 340 nm for 15 minutes at intervals of about 30 seconds, and the GK activation of each compound was calculated from the increase of absorbance during the first 10 minutes (ΔOD). Index of the GK activation of each test agent was calculated from the following formula as the GK activation (%).
GK activation (%)=[(ΔODTest)−(ΔODCont)]/(ΔODCont)×100
ΔODTest: ΔOD at 10 μM test agent
ΔODCont: ΔOD of DMSO control

ICR mice = assay: Action upon high blood glucose level after oral glucose loading in ICR mice; type: in vivo; conditions: 3 mg/kg oral, fasted ICR mice, AUC of blood glucose from administration until 2 hours after oral glucose loading (2 g/kg) vs solvent control
Protocol: After overnight fasting, body weights of ICR mice (N=5) were measured. Each test compound was dissolved in Cremophor solvent (Cremophor:DMSO:Water 5:5:90, v/v/v) to a concentration of 0.3 mg/ml. To each mouse was orally administered 10 ml/kg of the agent liquid (corresponds to the test compound of 3 mg/kg) or 10 ml/kg of the solvent control. Just before the administration of the test compound, about 60 μl of blood was collected from the venous plexus of the fundus of the eye using a capillary. After 30 minutes of the administration of the test compound, 200 mg/ml of glucose aqueous solution was orally administered at a dose of 10 ml/kg (corresponds to 2 g/kg). Just before the administration of glucose, about 60 μl of blood was collected from the venous plexus of the fundus of the eye using a capillary. Blood was collected in the same manner after 0.5, 1 and 2 hours of the glucose administration. Blood plasma was separated from the thus collected blood to measure the blood glucose level. AUC of the blood glucose level after the administration of the test compound until 2 hours after the glucose loading was compared with AUC of the solvent control group within the same period of time.

[2] = tested on: db/db (C57BL/KsJ-db/db) mice; assay: Action upon high blood glucose level after oral glucose loading in db/db mice; type: in vivo; conditions: 10 mg/kg oral, fasted db/db mice, from administration until 2 hours after oral glucose loading (2 g/kg)
Protocol: After overnight fasting, body weights of db/db (C57BL/KsJ-db/db) mice (N=5) were measured. Each test compound was dissolved in Cremophor solvent (Cremophor:DMSO:Water 5:5:90, v/v/v) to a concentration of 1 mg/ml. To each db/db mouse was orally administered 10 ml/kg of the agent liquid (corresponds to the test compound of 10 mg/kg) or 10 ml/kg of the solvent control. Just before the administration of the test compound, about 60 μl of blood was collected from the venous plexus of the fundus of the eye using a capillary. After 30 minutes of the administration of the GK activator, 200 mg/ml of glucose aqueous solution was orally administered at a dose of 10 ml/kg (corresponds to 2 g/kg). Just before the administration of glucose, about 60 μl of blood was collected from the venous plexus of the fundus of the eye using a capillary. Blood was collected in the same manner after 0.5, 1 and 2 hours of the glucose administration. Blood plasma was separated from the thus collected blood to measure the blood glucose level. AUC of the blood glucose level after the administration of the test compound until 2 hours after the glucose loading was compared with AUC of the solvent control group within the same period of time.

C57BL6 mice = assay: Hypoglycemic action in C57BL6 mice; type: in vivo; conditions: 10 mg/kg oral, 1 hour after administration, freely ingesting C57BL6 mice
Protocol: Body weights of freely ingesting C57BL6 mice (N=5) were measured. Each test compound was dissolved in Cremophor (registered trademark) solvent (Cremophor:DMSO:Water 5:5:90, v/v/v) to a concentration of 1 mg/ml. To each mouse was orally administered 10 ml/kg of the agent liquid (corresponds to the test compound of 10 mg/kg) or 10 ml/kg of the solvent control. Just before the administration of the test compound, about 60 μl of blood was collected from the venous plexus of the fundus of the eye using a capillary. Blood was collected in the same manner 1 or 4 hours after the administration of the test compound. Blood plasma was separated from the thus collected blood to measure the blood glucose level. The blood glucose level after 1 or 4 hours of the administration of the test compound was compared with the blood glucose level of the solvent control group at the same period of time.

Structure (SMILES)	activation at 10 µM [1] [%]	Blood glucose lowering ratio (%) (ICR mice)	AUC of the blood glucose level lowered in comparison with AUC of the solvent control group [2] [%]	blood glucose level lowered in comparison with the solvent control group (C57BL6 mice) [%]
O=C(Nc1nc([C@H](O)CO)cs1)/C(=C/C1CCCC1)c1ccc(S(=O)(=O)C2CC2)cc1 [Ex 13, (2E)-3-cyclopentyl-2-[4-(cyclopropylsulfonyl)phenyl]-N-{4-[(1S)-1,2-dihydroxyethyl]-1,3-thiazol-2-yl}acrylamide]	293	19	–	–
O=C(Nc1nc(CC(CO)CO)cs1)/C(=C/C1CCCC1)c1ccc(S(=O)(=O)C2CC2)cc1 [Ex 70, (2E)-3-cyclopentyl-2-[4-(cyclopropylsulfonyl)phenyl]-N-{4-[3-hydroxy-2-(hydroxymethyl)propyl]-1,3-thiazol-2-yl} acrylamide]	244	–	–	–
CS(=O)(=O)c1ccc([C@@H](CC2CCCC2)C(=O)Nc2nc(C(O)CO)cs2)cc1 (stereo partly drawn) [Ex 5, (2R)-3-cyclopentyl-N-[4-(1,2-dihydroxyethyl)-1,3-thiazol-2-yl]-2-[4-(methylsulfonyl)phenyl]propanamide]	263	–	–	–
O=C(Nc1nc(C(O)CO)cs1)/C(=C/C1CCCC1)c1ccc(S(=O)(=O)C2CC2)cc1 (stereo not drawn) [Ex 45, (2E)-3-cyclopentyl-2-[4-(cyclopropylsulfonyl)phenyl]-N-[4-(1,2-dihydroxyethyl)-1,3-thiazol-2-yl]acrylamide]	249	23	39	–
O=C(Nc1nc(C(O)CO)cs1)/C(=C/C1CCCC1)c1ccc(S(=O)(=O)C2CCC2)cc1 (stereo not drawn) [Ex 62, (2E)-2-[4-(cyclobutylsulfonyl)phenyl]-3-cyclopentyl-N-[4-(1,2-dihydroxyethyl)-1,3-thiazol-2-yl]acrylamide]	227	19	–	–
O=C(Nc1nc(C(O)CCO)cs1)/C(=C/C1CCCC1)c1ccc(S(=O)(=O)C2CC2)cc1 (stereo not drawn) [Ex 71]	240	22	–	–
CC(=O)OCC(O)c1csc(NC(=O)/C(=C/C2CCCC2)c2ccc(S(C)(=O)=O)cc2)n1 (stereo not drawn) [Ex 44]	283	–	–	–

Now from value to molecule, other results behind:

activation at 10 µM [1] [%]	Structure (SMILES)	Blood glucose lowering ratio (%) (ICR mice)	AUC of the blood glucose level lowered in comparison with AUC of the solvent control group [2] [%]	blood glucose level lowered in comparison with the solvent control group (C57BL6 mice) [%]
235	CC(O)(CO)c1csc(NC(=O)/C(=C/C2CCCC2)c2ccc(S(=O)(=O)C3CCC3)cc2)n1 (stereo not drawn) [Ex 73, (2E)-2-[4-(cyclobutylsulfonyl)phenyl]-3-cyclopentyl-N-[4-(1,2-dihydroxy-1-methylethyl)-1,3-thiazol-2-yl]acrylamide]	27	–	–
267	O=C(Nc1nc(C(O)CO)cs1)[C@H](CC1CCCC1)c1ccc(S(=O)(=O)C2CC2)cc1 (stereo partly drawn) [Ex 66]	–	–	–
294	CC1(C)OCC(c2csc(NC(=O)/C(=C/C3CCCC3)c3ccc(S(C)(=O)=O)c(Cl)c3)n2)O1 (stereo not drawn) [Ex 10, (2E)-2-[3-chloro-4-(methylsulfonyl)phenyl]-3-cyclopentyl-N-[4-(2,2-dimethyl-1,3-dioxolan-4-yl)-1,3-thiazol-2-yl]acrylamide]	–	–	–
214	O=C(Nc1nc(C(O)CO)cs1)C(CC1CCCC1)c1ccc(S(=O)(=O)C(F)(F)F)cc1 (stereo not drawn) [Ex 7, 3-cyclopentyl-N-[4-(1,2-dihydroxyethyl)-1,3-thiazol-2-yl]-2-{4-[(trifluoromethyl)sulfonyl]phenyl}propanamide]	–	–	–
260	CC(O)(CO)c1csc(NC(=O)[C@H](CC2CCCC2)c2ccc(S(=O)(=O)C3CC3)cc2)n1 (stereo partly drawn) [Ex 74, (2R)-3-cyclopentyl-2-[4-(cyclopropylsulfonyl)phenyl]-N-[4-(1,2-dihydroxy-1-methylethyl)-1,3-thiazol-2-yl]propanamide]	23	–	–
217	O=C(Nc1nc(C(=O)CO)cs1)/C(=C/C1CCCC1)c1ccc(S(=O)(=O)C2CC2)cc1 [Ex 77, (2E)-3-cyclopentyl-2-[4-(cyclopropylsulfonyl)phenyl]-N-(4-glycoloyl-1,3-thiazol-2-yl)acrylamide]	18	–	–
273	CS(=O)(=O)c1ccc([C@@H](CC2CCCC2)C(=O)Nc2nc(C(O)CO)c(Cl)s2)cc1 (stereo partly drawn) [Ex 49]	–	–	–
299	CS(=O)(=O)c1ccc(/C(=C\C2CCCC2)C(=O)Nc2nc(C(O)CO)cs2)cc1 (stereo not drawn) [Ex 6, (2E)-3-cyclopentyl-N-[4-(1,2-dihydroxyethyl)-1,3-thiazol-2-yl]-2-[4-(methylsulfonyl)phenyl]acrylamide]	–	–	22
241	CC(O)(CO)c1csc(NC(=O)/C(=C/C2CCCC2)c2ccc(S(=O)(=O)C3CC3)cc2)n1 (stereo not drawn) [Ex 63, (2E)-3-cyclopentyl-2-[4-(cyclopropylsulfonyl)phenyl]-N-[4-(1,2-dihydroxy-1-methylethyl)-1,3-thiazol-2-yl]acrylamide]	35	–	–
239	CC1(C)OCC(c2csc(NC(=O)/C(=C/C3CCCC3)c3ccc(S(C)(=O)=O)cc3)n2)O1 (stereo not drawn) [Ex 38, (2E)-3-cyclopentyl-N-[4-(2,2-dimethyl-1,3-dioxolan-4-yl)-1,3-thiazol-2-yl]-2-[4-(methylsulfonyl)phenyl]acrylamide]	–	–	–
